This passage reports solubility limit results from patent US12318364B2, “Isoflavonoid compositions and methods for the treatment of cancer” (Aardvark Therapeutics, Inc., priority 2010, dated 2025).

≈ marks a conversion by molar mass, not a printed value.

This data set can be described thus: Solubility limit of compound d-4 in aqueous Captisol (SBE7-β-CD) solution. In kind it is physicochemical. The note with it: at 25° C., 20% Captisol® in water.

Compound `Oc1ccc([C@H]2c3ccc(O)cc3OC[C@H]2c2ccc(O)cc2)cc1` (relative stereo) [Compound d-4, d-cis-3-(4-hydroxyphenyl)-4-(4-hydroxyphenyl)chroman-7-ol] showed a solubility limit of 27.9 mg/mL (≈ 83.4 mM).
